Test results from article PMC9228567 (2022).

Test system: cy5-TTRS (WT Tte-PreQ1 riboswitch aptamer) (RNA, riboswitch) CUCACCUGGGUCGCAGUAACCCCAGUUAACAAAACAAGGGAGGUAAUUUU
Assay: microscale thermophoresis
Details: 100 mM KCl, 1 mM MgCl2; 50 mM Tris pH 7.5, RT, DMSO; apparent, single-site fit

KD: 11.7 ± 0.35 nM
Compound: NCc1c[nH]c2nc(N)[nH]c(=O)c12
